Results from US4556677A, “Alkane and alkene derivatives and their use” (Farmos Group Ltd., priority 1981, dated 1985).
Where a name gives a salt, the structure may show the parent alone. Read-outs that look alike come from different tables or passages of the source. Blank lines part the entries; values can stand above or below the molecule they belong to.

Legend:
[1] = target: T1, estrogen receptors (Rattus norvegicus, UniProt P06211); assay: affinity to estrogen receptors, competition with 3H-labelled 17-β-estradiol (dextran-charcoal method); type: binding; conditions: rat uterus cytosol, Table 1; read-out: Affinity (concentration of compound where 50% competition (inhibition) with 3H-estradiol occurred)
T1 construct: rat uterus cytosol preparation; from tissue; host or cells: rat uterus cytosol
T1 sequence (P06211 1-600): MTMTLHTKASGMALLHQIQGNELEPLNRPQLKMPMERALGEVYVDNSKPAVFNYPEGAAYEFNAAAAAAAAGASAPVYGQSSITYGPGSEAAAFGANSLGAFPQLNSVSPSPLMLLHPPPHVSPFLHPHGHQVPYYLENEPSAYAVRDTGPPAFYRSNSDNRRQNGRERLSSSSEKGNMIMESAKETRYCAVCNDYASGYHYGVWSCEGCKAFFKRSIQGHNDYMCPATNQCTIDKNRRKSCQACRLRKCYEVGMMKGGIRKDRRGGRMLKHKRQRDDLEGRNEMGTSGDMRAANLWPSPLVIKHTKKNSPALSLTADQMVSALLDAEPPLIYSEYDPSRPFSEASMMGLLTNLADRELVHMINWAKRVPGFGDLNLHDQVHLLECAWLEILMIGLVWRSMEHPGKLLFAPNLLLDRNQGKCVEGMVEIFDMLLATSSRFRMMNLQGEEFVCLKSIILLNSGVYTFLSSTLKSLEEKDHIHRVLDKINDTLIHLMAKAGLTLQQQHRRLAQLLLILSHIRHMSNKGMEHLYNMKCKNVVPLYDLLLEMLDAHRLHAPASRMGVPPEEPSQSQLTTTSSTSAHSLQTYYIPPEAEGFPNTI
Experimental: The affinity to estrogen receptors was determined by the ability of the molecules to compete with ^3 H-labelled 17-β-estradiol in rat uterus cytosol preparation. After incubation, receptor-bound and receptor-unbound ligands were separated by a known dextrancharcoal method. (Korenman, S. G.: "Comparative binding affinity of estrogens and its relation to estrogenic potency". Steroids 13: 163-177, 1969). […] The results in table 1 are shown as follows: | with ^3 H--estradiol occurred

[2] = system: immature mouse uterus; assay: estrogenic effect in vivo, immature mouse uterus weight; conditions: for oestrogenic effect, % less than that of oestradiol 0.05 mg/kg: 0.5 mg/kg, s.c., immature mice; for estrogenic effect (in words): immature mouse uterus weight
Experimental: (§1) The estrogen-antiestrogen (progesterone-antiprogesterone) effect in vivo was determined as follows:
The estrogenic properties of the molecules were determined by administering the molecules, suspended in sesam oil, subcutaneously to 21 days old immature mice on three consecutive days. The mice were killed on the fourth day and the uterus was weighed. Estradiol (positive control) increases the weight of the uterus. The weight correlates with the estrogenic effect of the molecules.
The estrogenic effect of compounds of the invention as measured by their ability to increase the weight of immature mouse uterus was usually far less than that of oestradiol, the positive control. […] At the dose of 0.5 mg/kg the oestrogenic effect of compound 1, 7 and 8 were respectively 20%, 75% and 83% less and at the dose of 5 mg/kg the oestrogenic effect of compound 2 was 60% less than that of oestradiol 0.05 mg/kg.
(§2) In Table 2 a summary of the oestrogenic/antioestrogenic and progestanic/antiprogestanic effect of some of the compounds can be seen. The percentages refer to increase/reduction in mice uterus weights.

[3] = system: immature mouse uterus; assay: antiestrogenic effect in vivo, inhibition of oestradiol induced uterus weight increase in immature mice; conditions: for antiestrogenic effect (in words): immature mice
Experimental: as §1
The antiestrogenic effects of the molecules were determined in a similar manner in immature mice. In this case, the ability of the molecules to inhibit estrogen-induced uterus weight increase was investigated, too.
The compound 1 at a dose of 0.5 mg/kg caused a 50% inhibition of oestradiol induced effect on mouse uterus.
as §2

[4] = system: MCF-7 human mammary adenocarcinoma cell line; assay: anti-tumour effect in vitro, growth of MCF-7 cells (bioluminescence ATP assay); type: cell-based; conditions: MCF-7, Table 3, read-out: Antitumour effect (IC50 = concentration of compound where 50% inhibition of cell growth could be seen)
Experimental: The anti-tumour effect was studied in vitro as follows:
The growth of MCF-7 cell line (human mammary adenocarcinoma, known to be estrogen-dependent) was evaluated in the presence or absence of estradiol, medroxyprogesterone acetate or the molecules to be investigated. Combinations of molecule plus estradiol and molecule plus medroxyprogesterone were also studied. The amount of living cells after 4 h, 24 h and 48 h incubations were determined by bioluminescence assay (intracellular ATP determination).
The antitumour effects of the compounds had been tested in vitro against MCF-7 human mammary adenocarcinoma cell line and in vivo against DMBA-induced rat mammary adenocarcinomas and transplantable mammary adenocarcinoma.
In table 3 the antitumour effects of certain compounds can be seen.

[5] = system: DMBA-induced rat mammary adenocarcinomas; assay: antitumour effect in vivo against DMBA-induced rat mammary adenocarcinomas; conditions: 10 mg/kg
Experimental: (§3) The anti-tumour effect was investigated in vivo against DMBA-induced rat mammary adenocarcinomas and transplantable mammary adenocarcinoma according to the following methods:
Mammary adenocarcinomas were induced by DMBA in 35-40 days old female rats. Treatment with the molecules to be investigated was started after palpable tumours had appeared. Tumour size and numbers of tumours were evaluated twice a week. Tumour sizes in the control group, treated with solvent, were compared with the test groups.
The antitumour effect in vivo against DMBA-induced mammary carcinomas was investigated as described earlier. […] Compound 2 at the dose of 7.5 mg/kg caused a 63% decrease in the size of tumours compared to the control.

[6] = system: transplantable rat mammary adenocarcinoma; assay: effect on transplantable rat mammary adenocarcinoma; type: in vivo
Description: as §3
Transplantable rat mammary adenocarcinoma was developed by inoculating pieces of DMBA-induced carcinomas subcutaneously to healthy mature female rats. A tumor which expressed malignant growth was selected for further transplantations.
The effects of compounds mentioned earlier against transplantable rat mammary adenocarcinoma can be seen in table 4.
The figures in table 4 refer to relative sizes compared to controls which is 100.

[7] = system: mouse uterus; assay: progestanic effect in vivo, reduction of mouse uterus weight
Experimental: as §1
(§4) The (anti)progestanic effects were studied in a similar manners as the estrogenic ones. Medroxyprogesterone acetate, which decreases uterus weight, was used as reference.
(§5) The progestanic and antiprogestanic effects of compounds were measured as described earlier. The compound No. 2 reduced the weight of mouse uterus by 49% compared to control while medroxyprogesterone acetate gave 40% reduction.
as §2

[8] = system: mouse uterus; assay: antiprogestanic/synergistic effect in vivo, given together with medroxyprogesterone acetate, mouse uterus weight
Experimental: as §1, §4, §5, §2

[9] = together with medroxyprogesterone acetate
[10] = Table 2, 0.5 mg/kg, given alone
[11] = Table 2, 0.5 mg/kg, with medroxyprogesterone acetate 0.06 mg/kg

SMILES: CCC(C1CCCC1)C(c1ccccc1)c1ccc(O)cc1 (stereo not shown) [Compound 5, 2-cyclopentyl-1-(p-hydroxyphenyl)-1-phenylbutane]
estrogenic effect (in words) [2]: did not possess any estrogenic effects of their own
antiestrogenic effect (in words) [3]: not antiestrogenic
progestanic effect (in words) ([7]; given alone): did not possess progestanic effects
antiprogestanic / synergistic effect with medroxyprogesterone acetate (in words) [8, 9]: slight inhibition of medroxyprogesterone acetate produced effect
IC50 [4]: 1000 to 5000 nM

SMILES: CCC(C1CCCC1)C(c1ccccc1)c1ccc(O)cc1 (stereo not shown) [Compound 6, 2-cyclopentyl-1-(p-hydroxyphenyl)-1-phenylbutane]
estrogenic effect (in words) [2]: did not possess any estrogenic effects of their own
antiestrogenic effect (in words) [3]: not antiestrogenic
progestanic effect (in words) ([7]; given alone): did not possess progestanic effects
antiprogestanic / synergistic effect with medroxyprogesterone acetate (in words) [8, 9]: slight inhibition of medroxyprogesterone acetate produced effect
IC50 [4]: 1000 to 5000 nM

SMILES: CC/C(=C(\c1ccccc1)c1ccc(OCCNC)cc1)C1CCCC1 [Compound 10, (Z)--2-cyclopentyl-1-[p-(N--methyl-2-aminoethoxy)-phenyl]-1-phenyl-1-butene, hydrochloride]
IC50 [1]: 10000 to 100000 nM
IC50 ([4]; Homo sapiens, MCF7): 5000 to 10000 nM

SMILES: CCC(=C(c1ccc(OC)cc1)c1ccc(OCCN(C)C)cc1)C1CCCC1 [Compound 11, 2-cyclopentyl-1-[p-(N,N-dimethyl-2-aminoethoxy)phenyl]-1-(p-methoxyphenyl)-1-butene]
IC50 [1]: 10000 to 100000 nM
Given alone: progestanic effect (in words) [7, 10]: progestanic
Given alone: reduction in mice uterus weight [7, 10]: 20%
progestanic effect (in words) ([7]; given alone): purely due to its progestanic effect
reduction of mouse uterus weight ([7]; given alone, 0.5 mg/kg): 20%
Given with medroxyprogesterone acetate: effect (in words) [8, 11]: synergistic
Given with medroxyprogesterone acetate: reduction in mice uterus weight [8, 11]: 67%
reduction of mouse uterus weight together with medroxyprogesterone acetate ([8]; together with medroxyprogesterone acetate, vs 40% for the acetate alone): 67%
IC50 ([4]; Homo sapiens, MCF7): 1000 to 10000 nM
relative tumour size compared to controls which is 100 ([6]; 1.0 mg/kg): 87
relative tumour size compared to controls which is 100 ([6]; 5.0 mg/kg): 87
relative tumour size compared to controls which is 100 ([6]; 10.0 mg/kg): 50

SMILES: CCC(CO)C(CC)c1ccc(O)cc1 (stereo not shown) [Compound 12, 2-ethyl-3-(p-hydroxyphenyl)-1-pentanol]
IC50 [1]: 10000 to 100000 nM

SMILES: CC(=O)O[C@]1(C(C)=O)CC[C@H]2[C@@H]3C[C@H](C)C4=CC(=O)CC[C@]4(C)[C@H]3CC[C@@]21C [medroxyprogesterone acetate, Medroxyprogesterone acetate, reference compound]
decrease of mouse uterus weight by medroxyprogesterone acetate alone ([7]; reference compared with compound 8): 20%
reduction of mouse uterus weight by medroxyprogesterone acetate alone ([7]; reference compared with compounds 2 and 11): 40%

Continued, in another order:

IC50 [1]: 100 to 1000 nM
IC50 ([4]; Homo sapiens, MCF7): 1000 to 5000 nM
SMILES: CC/C(=C(/c1ccccc1)c1ccc(O)cc1)C1CCCC1 [Compound 1, (E)--2-cyclopentyl-1-(p-hydroxyphenyl)-1-phenyl-1-butene]
oestrogenic effect, % less than that of oestradiol 0.05 mg/kg [2]: 20%
estrogenic effect (in words) [2]: dose dependent
inhibition of oestradiol induced effect on mouse uterus ([3]; 0.5 mg/kg): 50%
decrease in size of tumours compared to the control [5]: 75%
growth of the tumours (in words) [5]: the growth of the tumours was slowed
number of the tumours (in words) [5]: the number of the tumours was decreasing
relative tumour size compared to controls which is 100 ([6]; 1.0 mg/kg): 80
relative tumour size compared to controls which is 100 ([6]; 5.0 mg/kg): 77
relative tumour size compared to controls which is 100 ([6]; 10.0 mg/kg): 58
relative tumour size compared to controls which is 100 ([6]; 20.0 mg/kg): 64
relative tumour size compared to controls which is 100 ([6]; 40.0 mg/kg): 40

IC50 [1]: 100 to 10000 nM
IC50 ([4]; Homo sapiens, MCF7): 1000 to 5000 nM
SMILES: CC/C(=C(\c1ccccc1)c1ccc(O)cc1)C1CCCC1 [Compound 3, (Z)-2-cyclopentyl-1-(p-hydroxyphenyl)-1-phenyl-1-butene]

IC50 [1]: 100 to 1000 nM
IC50 ([4]; Homo sapiens, MCF7): 1000 to 5000 nM
SMILES: CCC(C1CCCC1)C(c1ccccc1)c1ccc(O)cc1 (stereo not shown) [Compound 4, 2-cyclopentyl-1-(p-hydroxyphenyl)-1-phenylbutane]

IC50 [1]: 100 to 1000 nM
IC50 ([4]; Homo sapiens, MCF7): 1000 to 5000 nM
SMILES: CCC(=C(c1ccc(O)cc1)c1ccc(OCCN(C)C)cc1)C1CCCC1 [Compound 7, 2-cyclopentyl-1-[p-(N,N-dimethyl-2-aminoethoxy)phenyl]-1-(p-hydroxyphenyl)-1-butene]
oestrogenic effect, % less than that of oestradiol 0.05 mg/kg [2]: 75%
Given alone: oestrogenic effect (in words) [2, 10]: oestrogenic
estrogenic effect (in words) [2]: dose dependent
inhibition of oestradiol induced effect on mouse uterus ([3]; 5 mg/kg): 48%
Given with oestradiol: reduction in mice uterus weight ([3]; Table 2, 5 mg/kg, with oestradiol 0.05 mg/kg): 48%
progestanic effect (in words) ([7]; given alone): did not posses any progestanic effects of its own
antiprogestanic / synergistic effect with medroxyprogesterone acetate (in words) [8, 9]: clear dose dependant antiprogestanic effect

IC50 [1]: 100 to 1000 nM
IC50 ([4]; Homo sapiens, MCF7): 1000 to 10000 nM
SMILES: CCC(c1ccc(O)cc1)C(CC)C1CCCC1 (stereo not shown) [Compound 9, 3-cyclopentyl-4-(p-hydroxyphenyl)-hexane]
